From US20030236213A1, “Mimics of acyl coenzyme-A comprising pantolactone and pantothenic acid derivatives, compositions thereof, and methods of cholesterol management and related uses” (priority 2002, published 2003)

Key:
obese female Zucker rats = assay: Oral daily treatment of obese female Zucker rats for fourteen days; type: in vivo, rat; conditions: 14 days; for Glucose, Percent Change from Pre-treatment: blood, 6-hour fast; for Glucose, Percent Change from Pre-treatment / BHA, Percent Change from Pre-treatment / HDL-C, Percent Change from Pre-treatment / Insulin, Percent Change from Pre-treatment / NEFA, Percent Change from Pre-treatment / Non HDL-C, Percent Change from Pre-treatment / TC, Percent Change from Pre-treatment / TG, Percent Change from Pre-treatment: oral daily; for % wt. gain / HDL-C/non HDL-C: oral gavage daily; for BHA, Percent Change from Pre-treatment / HDL-C, Percent Change from Pre-treatment / Insulin, Percent Change from Pre-treatment / NEFA, Percent Change from Pre-treatment / Non HDL-C, Percent Change from Pre-treatment / TC, Percent Change from Pre-treatment / TG, Percent Change from Pre-treatment: serum
Experimental: In a number of different experiments, compounds described in Table 1 were administered daily to 11-13 week old chow fed obese female Zucker rats for 14 days in the morning by oral gavage in 20% ethanol/80% polyethylene glycol-200 (dosing vehicle)(“EP”). The dosing vehicle was administered to control animals in parallel experiments.
Body weight was determined daily prior to dosing. Animals were allowed free access to rodent chow and water throughout the study. Blood glucose was determined after a 6-hour fast in the afternoon without anesthesia from a tail vein. Serum was also prepared from a blood sample subsequently obtained from the orbital venous plexus (with O2/CO2 anesthesia) prior to and after one week treatment and used lipid and insulin determinations. At two weeks, blood glucose was again determined after a 6-hour fast without anesthesia from a tail vein. Soon thereafter, animals were sacrificed by CO2 inhalation in the afternoon and cardiac blood serum was collected and assessed for various lipids and insulin.

primary rat hepatocytes = assay: Synthesis of total lipids (14C-acetate labeling) in primary rat hepatocytes; type: cell-based; conditions: Hepatocyte, 14C-acetate labeling 4 hr at 37° C., 1-300 μM, read-out: IC50, total lipid synthesis
Experimental: A male Sprague-Dawley rate was anesthetized by administration of sodium pentobarbitol by intraperitoneal at 80 mg/kg. In situ perfusion of the liver was performed as follows. The abdomen of the animal was opened, the portal vein canulated, and the liver perfused with WOSH solution (149 mM NaCl, 9.2 mM Na HEPES, 1.7 mM Fructose, 0.5 mM EGTA, 0.029 mM Phenol red, 10 U/ml heparin, pH 7.5) at a flow rate of 30 ml/min for 6 minutes. To digest the liver, DSC solution (6.7 mM KCl, 143 mM NaCl, 9.2 mM Na HEPES, 5 mM CaCl2-2H2O, 1.7 mM Fructose, 0.029 mM Phenol red, 0.2% BSA, 100 U/ml collagenase Type I, 160 BAEE/ml trypsin inhibitor, pH 7.5) was perfused through the liver at a flow rate of 30 ml/min for 6 minutes at a temperature of 37° C. After digestion, cells were dispersed in a solution of DMEM-(DMEM containing 2 mM GlutMax-1, 0.2% BSA, 5% FBS, 12 nM insulin, 1.2 μM hydrocortisone) to stop the digestion process. The crude cell suspension was filtered through three layers of stainless steel mesh with pore sizes of 250, 106, and 75 μm respectively. Filtered cells were centrifuged at 50×g for two minutes and the supernatant discarded. The resulting cell pellet was resuspended in DMEM and centrifuged again. […]

Row | SMILES | % wt. gain (obese female Zucker rats; 30 mg/kg/day) [%] | melting point [°C] | % wt. gain (obese female Zucker rats; 100 mg/kg/day) [%] | Glucose, Percent Change from Pre-treatment (obese female Zucker rats; 30 mg/kg/day) [%] | HDL-C/non HDL-C (obese female Zucker rats; 30 mg/kg/day) | BHA, Percent Change from Pre-treatment (obese female Zucker rats; 30 mg/kg/day) [%] | HDL-C, Percent Change from Pre-treatment (obese female Zucker rats; 30 mg/kg/day) [%] | Insulin, Percent Change from Pre-treatment (obese female Zucker rats; 30 mg/kg/day) [%] | NEFA, Percent Change from Pre-treatment (obese female Zucker rats; 30 mg/kg/day) [%] | Non HDL-C, Percent Change from Pre-treatment (obese female Zucker rats; 30 mg/kg/day) [%] | TC, Percent Change from Pre-treatment (obese female Zucker rats; 30 mg/kg/day) [%] | TG, Percent Change from Pre-treatment (obese female Zucker rats; 30 mg/kg/day) [%] | Glucose, Percent Change from Pre-treatment (obese female Zucker rats; 100 mg/kg/day) [%] | HDL-C/non HDL-C (obese female Zucker rats; 100 mg/kg/day) | BHA, Percent Change from Pre-treatment (obese female Zucker rats; 100 mg/kg/day) [%] | HDL-C, Percent Change from Pre-treatment (obese female Zucker rats; 100 mg/kg/day) [%] | Insulin, Percent Change from Pre-treatment (obese female Zucker rats; 100 mg/kg/day) [%] | NEFA, Percent Change from Pre-treatment (obese female Zucker rats; 100 mg/kg/day) [%] | Non HDL-C, Percent Change from Pre-treatment (obese female Zucker rats; 100 mg/kg/day) [%] | TC, Percent Change from Pre-treatment (obese female Zucker rats; 100 mg/kg/day) [%] | also measured
1 | Cc1cc(OCCCCC(C)(C)CO)cc(C)c1NC(=O)C(O)C(C)(C)CO (centres unmarked) [Compound AC, 2,4-dihydroxy-N-[4-(6-hydroxy-5,5-dimethyl-hexyloxy)-2,6-dimethyl-phenyl]-3,3-dimethyl-butyramide] |  |  |  |  |  |  |  |  |  |  |  |  |  |  |  |  |  |  |  |  | IC50 (primary rat hepatocytes): 2100 nM
2 | CCCCCOc1cc(C)c(NC(=O)C(O)C(C)(C)CO)c(C)c1 (centres unmarked) [AA, N-(2,6-dimethyl-4-pentyloxy-phenyl)-2,4-dihydroxy-3,3-dimethyl-butyramide] |  | 101 to 102.5 | 11 |  |  |  |  |  |  |  |  |  | 10 | 3 | 51 | 87 | −10 | −30 | −17 | 41 | TG, Percent Change from Pre-treatment (obese female Zucker rats; 100 mg/kg/day): −38%
3 | CC(C)(CO)C(O)C(=O)NCc1cccnc1 (centres unmarked) [AB, 2,4-Dihydroxy-3,3-dimethyl-N-pyridin-3ylmethyl-butyramide] |  | 120 to 121.5 |  |  |  |  |  |  |  |  |  |  |  |  |  |  |  |  |  |  | 
4 | CC(C)(CO)C(O)C(=O)NCCOCCNC(=O)C(O)C(C)(C)CO (centres unmarked) [U, N-{2-[2-(2,4-Dihydroxy-3,3-dimethylbutyrylamino)-ethoxy]-ethyl}-2,4-dihydroxy-3,3-dimethylbutyramide] |  |  | 9 |  |  |  |  |  |  |  |  |  | −3 | 2 | 254 | 14 | 6 | 13 | −2 | 8 | TG, Percent Change from Pre-treatment (obese female Zucker rats; 100 mg/kg/day): 1%

Continued, in another order:

Row | % wt. gain (obese female Zucker rats; 30 mg/kg/day) [%] | melting point [°C] | % wt. gain (obese female Zucker rats; 100 mg/kg/day) [%] | SMILES | Glucose, Percent Change from Pre-treatment (obese female Zucker rats; 30 mg/kg/day) [%] | HDL-C/non HDL-C (obese female Zucker rats; 30 mg/kg/day) | BHA, Percent Change from Pre-treatment (obese female Zucker rats; 30 mg/kg/day) [%] | HDL-C, Percent Change from Pre-treatment (obese female Zucker rats; 30 mg/kg/day) [%] | Insulin, Percent Change from Pre-treatment (obese female Zucker rats; 30 mg/kg/day) [%] | NEFA, Percent Change from Pre-treatment (obese female Zucker rats; 30 mg/kg/day) [%] | Non HDL-C, Percent Change from Pre-treatment (obese female Zucker rats; 30 mg/kg/day) [%] | TC, Percent Change from Pre-treatment (obese female Zucker rats; 30 mg/kg/day) [%] | TG, Percent Change from Pre-treatment (obese female Zucker rats; 30 mg/kg/day) [%] | Glucose, Percent Change from Pre-treatment (obese female Zucker rats; 100 mg/kg/day) [%] | HDL-C/non HDL-C (obese female Zucker rats; 100 mg/kg/day) | BHA, Percent Change from Pre-treatment (obese female Zucker rats; 100 mg/kg/day) [%] | HDL-C, Percent Change from Pre-treatment (obese female Zucker rats; 100 mg/kg/day) [%] | Insulin, Percent Change from Pre-treatment (obese female Zucker rats; 100 mg/kg/day) [%] | NEFA, Percent Change from Pre-treatment (obese female Zucker rats; 100 mg/kg/day) [%] | Non HDL-C, Percent Change from Pre-treatment (obese female Zucker rats; 100 mg/kg/day) [%] | TC, Percent Change from Pre-treatment (obese female Zucker rats; 100 mg/kg/day) [%] | also measured
5 | 9 | 124.8 to 124.9 |  | CC(C)(CO)[C@@H](O)C(=O)NCCNC(=O)[C@H](O)C(C)(C)CO [Compound V3, (R,R)-N-[2-(2,4-Dihydroxy-3,3-dimethylbutyrylamino)-ethyl]-2,4-dihydroxy-3,3-dimethylbutyramide] | 3 | 2 | 69 | 7 | 11 | −16 | 16 | 9 | 14 |  |  |  |  |  |  |  |  | 
6 | 10 |  |  | CC(C)(CO)C(O)C(=O)NCCNC(=O)C(O)C(C)(C)CO (racemic) [Compound V2, N-[2-(2,4-Dihydroxy-3,3-dimethylbutyrylamino)-ethyl]-2,4-dihydroxy-3,3-dimethylbutyramide] | −8 | 2 | 58 | −20 | −53 | −23 | 23 | −13 | 36 |  |  |  |  |  |  |  |  | 
7 | 12 | 124.8 to 124.9 |  | CC(C)(CO)[C@H](O)C(=O)NCCNC(=O)[C@@H](O)C(C)(C)CO [Compound V4] | 2 | 1 | 79 | 5 | 4 | −28 | 75 | 23 | 22 |  |  |  |  |  |  |  |  | 
8 |  |  | 11 | CC(C)(CO)[C@H](O)C(=O)NCCNC(=O)[C@H](O)C(C)(C)CO [Compound V1, (R,S)-N-[2-(2,4-Dihydroxy-3,3-dimethylbutyrylamino)-ethyl]-2,4-dihydroxy-3,3-dimethyl-butyramide] |  |  |  |  |  |  |  |  |  | −3 | 1 | 63 | 77 | −20 | 7 | 6 | 34 | TG, Percent Change from Pre-treatment (obese female Zucker rats; 100 mg/kg/day): 22%
